Structures are written as SMILES. pIC50: −log10 of the molar value.

For the experiment, the system named is BaF3 V617F cells; UKE-1. Description: Proliferation Assay (Cell Titer-Glo; Example 7). Format: cell-based. The conditions noted are these: proliferation 72 hours, inhibit JAK2 activity, cell line (BaF3 V617F or UKE-1) not stated. How it is done: BaF3 V617F cells are maintained and plated in RPMI with 10% FBS. Plating density for these cells is 1×10^5 cells/mL.
UKE-1 are maintained and plated in Iscove's DMEM containing 10% FBS, 10% equine serum, 1% penicillin/streptomycin and 1 uM hydrocortisone. Plating density for these cells is 0.4×10^6 cells/mL
The cells were resuspended in a corresponding medium at a required cell density (see above). 100μ of cell suspension was added to each well of a flat bottom 96 well white plate. The compound was serially diluted in DMSO from 5 mM in 3-fold dilutions, and then diluted 1:250 in the RPMI 1640 medium containing 5% FBS and pen/strep. 100 μL of resulting 2× compound solution was added per well in duplicate and the cells were allowed to proliferate for 72 hours at 37° C.
Proliferation was measured using Cell Titer-Glo. The substrate was thawed and allowed to come to room temperature. After removal of top 100 μL of medium from each well, 100 μL of the premixed Cell Titer-Glo reagent was added to each well. The plates were mixed on an orbital shaker for three minutes to induce lysis and incubated at ambient temperature for an additional five minutes to allow the signal to equilibrate. The Luminescence was read on the Wallac Plate Reader.
The results of the ability of the compounds of the invention to inhibit JAK2 activity, when tested in the above assay, are shown in the following Table XI wherein the level of activity (i.e., the IC50) for each compound is indicated in Table XI. The compound numbers in Table XI refers to the compounds disclosed herein as being prepared by the methods disclosed herein: […]

`CCNS(=O)(=O)NCc1ccc(Nc2nc(Nc3cc(Cl)c(OC)c(OC)c3)ncc2Cl)cc1` [II-113, 5-Chloro-N2-(3-chloro-4,5-dimethoxyphenyl)-N4-[(4-(ethylamino)sulfonylamino)methylphenyl]-2,4-pyrimidinediamine]: the pIC50 was 6.54.

As for `COc1cc(Nc2ncc(Cl)c(Nc3cccc(CNS(=O)(=O)C4CC4)c3)n2)cc(OC)c1OC` [II-189, 5-Chloro-N4-[3-(N-cyclopropylsulfonylamino)methylphenyl]-N2-[3,4,5-trimethoxyphenyl]-2,4-pyrimidinediamine], the negative-log IC50 (pIC50) is 6.26.

As to `Cc1cc(Nc2ncc(C(F)(F)F)c(Nc3ccc(CNS(=O)(=O)C4CC4)cc3)n2)ccc1N1CCN(C)CC1` [II-128, N4-[4-(N-Cyclopropylsulfonylamino)methylphenyl]-N2-[3-methyl-4-(4-methyl-1-piperazinyl)phenyl]-5-trifluoromethyl-2,4-pyrimidinediamine], the pIC50 was 6.12. As for `CN1CCN(c2ccc(Nc3ncc(Cl)c(Nc4ccc(CNS(=O)(=O)NC5CC5)cc4)n3)cc2)CC1` [II-167, 5-Chloro-N4-[4-((N-cyclopropylamino)sulfonylamino)methylphenyl]-N2-[4-(4-methyl-1-piperazinyl)phenyl]-2,4-pyrimidinediamine], the figure is 6.69. The value for `CCNS(=O)(=O)NCc1ccc(Nc2nc(Nc3cc(C)c(OC)c(Cl)c3)ncc2C)cc1` [II-118, N2-(3-Chloro-4-methoxy-5-methylphenyl)-N4-[(4-(ethylamino)sulfonylamino)methylphenyl]-5-methyl-2,4-pyrimidinediamine] was 6.64; that for `Cc1cnc(Nc2cc(C3CC3)n[nH]2)nc1Nc1ccc(CNS(=O)(=O)C2CC2)cc1` [VIII-11, 5-Methyl-N4-[4-(N-cyclopropylsulfonylamino)methylphenyl]-N2-[5-cyclopropylpyrazol-3-yl)-2,4-pyrimidinediamine] was 6.41.

On to `Cc1cnc(Nc2ccc(N3CCC(F)(F)CC3)cc2)nc1Nc1ccc(CNS(=O)(=O)N(C)C)cc1` [II-105, N4-[(4-(Dimethylamino)sulfonylamino)methylphenyl]-N2-[4-(4,4-difluoro-1-piperidinyl)phenyl]-5-methyl-2,4-pyrimidinediamine], for which the pIC50 was 4.69. The value for `CCNS(=O)(=O)NCc1cccc(Nc2nc(Nc3ccc(N4CCN(C)CC4)cc3)ncc2Cl)c1` [II-131, 5-Chloro-N4-[(3-(ethylamino)sulfonylamino)methylphenyl]-N2-[4-(4-methyl-1-piperazinyl)phenyl]-2,4-pyrimidinediamine] was 6.82; that for `COc1c(Cl)cc(Nc2ncc(C)c(Nc3ccc4c(c3)C(NS(=O)(=O)C3CC3)CC4)n2)cc1Cl` (racemic) [V-8, (+/−)-N4-[1-(Cyclopropylsulfonylamino)indan-6-yl]-N2-(3,5-dichloro-4-methoxyphenyl)-5-methyl-2,4-pyrimidinediamine] was 5.52.

As for `Cc1cc(Nc2ncc(Cl)c(Nc3ccc4c(c3)S(=O)(=O)NCC4)n2)cc(C)c1C` [VII-9, 5-Chloro-N4-[3,4-dihydro-1,1-dioxide-2H-1,2-benzothiazin-7-yl]-N2-[3,4,5-trimethylphenyl]-2,4-pyrimidinediamine], the negative logarithm of the IC50 (pIC50) is 5.87. `CCc1cnc(Nc2ccc(N3CCC(F)(F)CC3)cc2)nc1Nc1ccc(CNS(=O)(=O)C2CC2)cc1` [II-87, N4-[4-(N-Cyclopropylsulfonylamino)methylphenyl]-N2-[4-(4,4-difluoro-1-piperidinyl)phenyl]-5-ethyl-2,4-pyrimidinediamine] had a negative-log IC50 (pIC50) of 5.28. As for `CCNS(=O)(=O)NCc1cccc(Nc2nc(Nc3ccc(N4CCN(C)CC4)c(C)c3)ncc2F)c1` [II-139, N4-[3-((Ethylamino)sulfonylamino)methylphenyl]-5-fluoro-N2-[3-methyl-4-(4-methyl-1-piperazinyl)phenyl]-2,4-pyrimidinediamine], the figure is 5.36.

The values are drawn from US8304422B2, “Compositions and methods for inhibition of the JAK pathway” (Rigel Pharmaceuticals, Inc., priority 2007, dated 2012).
